Test results: the supplement of paper PMC11451515

System: SEM cells
Experiment: cell viability relative to DMSO control; higher = less cytotoxic
Conditions: 48 h
Outline: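 NOMO1 or SEM (500 cells/well) or P12-Ichikawa (1000 cells/well) leukemia cells were adapted for at least four passages in each medium. They were seeded in 1536-well plates (5 μl) and pin-dosed with library compounds in DMSO over an 11-point threefold series, 47 μM to 0.79 nM. CellTiter-Glo One luminescence was read after 48 h at 37°C. Viability is the per-plate percentage relative to DMSO wells, with cell-free wells as background.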

[1] = HPLM + 10% dialyzed FBS, 0.000781 µM
[2] = HPLM + 10% dialyzed FBS, 0.00234 µM
[3] = HPLM + 10% dialyzed FBS, 0.00702 µM
[4] = HPLM + 10% dialyzed FBS, 0.0211 µM
[5] = HPLM + 10% dialyzed FBS, 0.0632 µM
[6] = HPLM + 10% dialyzed FBS, 0.19 µM
[7] = HPLM + 10% dialyzed FBS, 0.569 µM
[8] = HPLM + 10% dialyzed FBS, 1.71 µM
[9] = HPLM + 10% dialyzed FBS, 5.12 µM
[10] = HPLM + 10% dialyzed FBS, 15.4 µM
[11] = HPLM + 10% dialyzed FBS, 46.1 µM
[12] = RPMI 5 mM glucose + 10% FBS, 0.000781 µM
[13] = RPMI 5 mM glucose + 10% FBS, 0.00234 µM
[14] = RPMI 5 mM glucose + 10% FBS, 0.00702 µM
[15] = RPMI 5 mM glucose + 10% FBS, 0.0211 µM
[16] = RPMI 5 mM glucose + 10% FBS, 0.0632 µM
[17] = RPMI 5 mM glucose + 10% FBS, 0.19 µM
[18] = RPMI 5 mM glucose + 10% FBS, 0.569 µM
[19] = RPMI 5 mM glucose + 10% FBS, 1.71 µM
[20] = RPMI 5 mM glucose + 10% FBS, 5.12 µM
[21] = RPMI 5 mM glucose + 10% FBS, 15.4 µM
[22] = RPMI 5 mM glucose + 10% FBS, 46.1 µM
[23] = RPMI 5 mM glucose + 10% dialyzed FBS, 0.000781 µM
[24] = RPMI 5 mM glucose + 10% dialyzed FBS, 0.00234 µM
[25] = RPMI 5 mM glucose + 10% dialyzed FBS, 0.00702 µM
[26] = RPMI 5 mM glucose + 10% dialyzed FBS, 0.0211 µM
[27] = RPMI 5 mM glucose + 10% dialyzed FBS, 0.0632 µM
[28] = RPMI 5 mM glucose + 10% dialyzed FBS, 0.19 µM
[29] = RPMI 5 mM glucose + 10% dialyzed FBS, 0.569 µM
[30] = RPMI 5 mM glucose + 10% dialyzed FBS, 1.71 µM
[31] = RPMI 5 mM glucose + 10% dialyzed FBS, 5.12 µM
[32] = RPMI 5 mM glucose + 10% dialyzed FBS, 15.4 µM
[33] = RPMI 5 mM glucose + 10% dialyzed FBS, 46.1 µM

| Compound | cell viability [1] [%] | cell viability [2] [%] | cell viability [3] [%] | cell viability [4] [%] | cell viability [5] [%] | cell viability [6] [%] | cell viability [7] [%] | cell viability [8] [%] | cell viability [9] [%] | cell viability [10] [%] | cell viability [11] [%] | cell viability [12] [%] | cell viability [13] [%] | cell viability [14] [%] | cell viability [15] [%] | cell viability [16] [%] | cell viability [17] [%] | cell viability [18] [%] | cell viability [19] [%] | cell viability [20] [%] | cell viability [21] [%] | cell viability [22] [%] | cell viability [23] [%] | cell viability [24] [%] | cell viability [25] [%] | cell viability [26] [%] | cell viability [27] [%] | cell viability [28] [%] | cell viability [29] [%] | cell viability [30] [%] | cell viability [31] [%] | cell viability [32] [%] | cell viability [33] [%] |
| --- | --- | --- | --- | --- | --- | --- | --- | --- | --- | --- | --- | --- | --- | --- | --- | --- | --- | --- | --- | --- | --- | --- | --- | --- | --- | --- | --- | --- | --- | --- | --- | --- | --- |
| NCC(=O)Nc1ccc(-n2nc(C(F)(F)F)cc2-c2ccc3c(ccc4ccccc43)c2)cc1 | 109 | 136 | 117 | 121 | 120 | 112 | 129 | 121 | 113 | 99.1 | 95 | 87.7 | 100 | 112 | 102 | 116 | 114 | 101 | 107 | 98.3 | 84.8 | 72.6 | 119 | 138 | 119 | 124 | 120 | 114 | 128 | 132 | 100 | 51.4 | 45.1 |
| CN1C(=O)/C=C(/NCCN(CCO)CCCC2=CC=C(C=C2)[N+]([O-])=O)N(C)C1=O | 104 | 113 | 121 | 114 | 108 | 136 | 121 | 119 | 120 | 108 | 66.6 | 112 | 111 | 131 | 118 | 109 | 138 | 133 | 123 | 95.2 | 105 | 55 | 103 | 123 | 135 | 111 | 144 | 138 | 136 | 137 | 121 | 107 | 50.8 |
| O=[N+]([O-])c1cnc(Sc2nnc(O)n2-c2ccc3c(c2)OCCO3)s1 | 90.4 | 69.9 | 80.1 | 82.6 | 73.2 | 86.9 | 102 | 84.3 | 83.2 | 2.06 | 2.49 | 87.5 | 70.9 | 87.6 | 87.8 | 89 | 88.6 | 100 | 73.1 | 71.4 | 2.18 | 2.5 | 82.7 | 67.9 | 81.6 | 84.1 | 77.4 | 88.2 | 85.1 | 86.7 | 77.9 | 2.08 | 2.84 |
| COc1cc(OC)c(NC(=O)Nc2cc(C)on2)cc1Cl | 95.9 | 94.2 | 104 | 98.4 | 94.6 | 99.8 | 97.3 | 112 | 100 | 97.5 | 71.3 | 74.3 | 79.6 | 90.9 | 89.6 | 82 | 86.5 | 91.3 | 92 | 76.6 | 80.6 | 63.8 | 84.8 | 100 | 90.3 | 94.5 | 105 | 108 | 96.1 | 89.7 | 101 | 91.5 | 71.1 |
| CCCCN(CCCC)C(=O)CN1C[C@H](c2ccc3c(c2)OCO3)[C@@H](C(=O)O)[C@@H]1c1ccc(OC)cc1 | 98.6 | 107 | 114 | 98.2 | 103 | 105 | 106 | 92.5 | 28.4 | 55.3 | 63.4 | – | – | – | – | – | – | – | – | – | – | – | 112 | 112 | 125 | 84.8 | 116 | 127 | 109 | 106 | 74.8 | 75.8 | 67 |
| Cc1ccc(C(=O)c2cc(O)c(O)c([N+](=O)[O-])c2)cc1 | 78.2 | 96.4 | 98.5 | 81.4 | 97.7 | 91.1 | 115 | 110 | 108 | 111 | 95.6 | 92.6 | 88 | 103 | 100 | 96.7 | 101 | 101 | 99.7 | 110 | 87.6 | 95.9 | 83.1 | 82.8 | 88.7 | 96.1 | 93.4 | 94 | 80.8 | 89.4 | 102 | 88.8 | 101 |
| CCNC(=O)[C@H]1O[C@@H](n2cnc3c(N)nc(NCCc4ccc(CCC(=O)O)cc4)nc32)[C@H](O)[C@@H]1O | 100 | 90.7 | 106 | 111 | 115 | 107 | 107 | 110 | 106 | 104 | 78.8 | 83.6 | 33.4 | 91.4 | 97.6 | 103 | 108 | 110 | 88.1 | 92 | 89.6 | 62.3 | 88.3 | 84.3 | 101 | 102 | 116 | 116 | 117 | 96.3 | 109 | 99 | 74.8 |
| O=C1CCc2ccc(OCCCCN3CCN(c4cccc(Cl)c4Cl)CC3)cc2N1 | 111 | 121 | 111 | 41 | 113 | 112 | 101 | 89.2 | 129 | 119 | 113 | 104 | 111 | 105 | 24.5 | 96.4 | 101 | 98.5 | 23.1 | 107 | 95.7 | 73.1 | 120 | 108 | 113 | 34.9 | 105 | 112 | 120 | 106 | 105 | 117 | 74.7 |
| CC(C)[C@H](CO)Nc1nc(Nc2cccc(Cl)c2)c2ncn(C(C)C)c2n1 | 88.8 | 88.2 | 97.6 | 101 | 110 | 99.4 | 69.8 | 49.4 | 3.37 | 1.22 | 2.26 | 86.7 | 112 | 101 | 95.4 | 71 | 86.4 | 21.6 | 4.3 | 1.34 | 0.473 | 1.1 | 98.6 | 107 | 91.5 | 104 | 106 | 93.5 | 35.7 | 18.9 | 1.89 | 0.704 | 1.74 |
| C[C@@H]1C[C@H]2[C@@H]3CC\C4=C\C(=O)\C=C/[C@]4(C)[C@@]3(Cl)[C@@H](O)C[C@]2(C)[C@@]1(OC(=O)C5=CC=CO5)C(=O)CCl | 28.4 | 82.2 | 45.9 | 53.8 | 61 | 59.3 | 53.2 | 47.7 | 36.9 | 45.6 | 52 | 32.3 | 81.8 | 35.8 | 62.1 | 61 | 50.4 | 50.4 | 45.1 | 36.9 | 37.3 | 50.8 | 30.9 | 76.5 | 39 | 52.5 | 64.1 | 47 | 46.8 | 44.7 | 28.8 | 43 | 36.5 |
| CCN1C[C@]2(OC(=O)c3ccccc3NC(C)=O)CC[C@H](OC)[C@@]34[C@@H]2C[C@@H]([C@@H]13)[C@@]1(O)C[C@H](OC)[C@H]2C[C@@H]4[C@]1(O)[C@H]2OC | 85 | 100 | 99 | 105 | 99.6 | 104 | 98.2 | 106 | 92.5 | 85.2 | 88.6 | 79.5 | 96.6 | 101 | 102 | 106 | 99.8 | 103 | 90.9 | 87.9 | 65.6 | 71 | 88.2 | 94.6 | 97.5 | 101 | 81.9 | 88.4 | 99.4 | 93 | 80.6 | 78.4 | 86.5 |
| COC[C@H]1OC(=O)C2=COC3=C2[C@@]1(C)\C4=C(\[C@@H]5CC[C@H](O)[C@@]5(C)C[C@H]4OC(C)=O)C3=O | 95.1 | 117 | 48.9 | 114 | 113 | 113 | 117 | 111 | 102 | 98.6 | 54.7 | 60.9 | 67.4 | 15.9 | 71.7 | 77.7 | 84.9 | 67.9 | 77.3 | 55.9 | 53.2 | 33.7 | 101 | 99 | 45.8 | 98.4 | 115 | 108 | 104 | 105 | 84.7 | 68.2 | 30.8 |
| CNCC(O)C(O)C(O)C(O)CO.O=C(O)c1ccc(-c2cc3cccnc3c(-c3ccc4nonc4c3)n2)cc1 | 104 | 103 | 99.1 | 115 | 114 | 115 | 114 | 131 | 112 | 92.7 | 92 | 100 | 107 | 109 | 108 | 115 | 108 | 115 | 111 | 103 | 108 | 88.8 | 98 | 97.6 | 120 | 103 | 108 | 101 | 112 | 103 | 127 | 87.6 | 65.8 |
| OC(COC1=C2C(=O)\C=C(/OC2=CC=C1)C([O-])=O)COC3=C4C(=O)\C=C(/OC4=CC=C3)C([O-])=O | 65.3 | 72.3 | 76 | 73.9 | 77.7 | 43.5 | 80.8 | 88 | 95.9 | 73.1 | 96.8 | 71 | 83.6 | 85.6 | 84.3 | 86.6 | 20.2 | 65.6 | 74.7 | 99.4 | 65.9 | 90.9 | 72.1 | 74.5 | 76.6 | 73.5 | 91.4 | 64 | 82.6 | 95.1 | 102 | 76.9 | 97.7 |
| CN(C)C[C@@H]1CC[N]2C=C(C3=C2C=CC=C3)C/4=C(/C(=O)NC4=O)C5=C[N](CCO1)C6=C5C=CC=C6 | 87.6 | 56.8 | 105 | 110 | 97.5 | 99.6 | 91.2 | 81.4 | 79.2 | 56.8 | 2.57 | 118 | 59.2 | 97.3 | 97 | 99.2 | 119 | 105 | 89.1 | 77.7 | 49.6 | 2.71 | 97.7 | 47.9 | 102 | 105 | 107 | 105 | 93.7 | 87.2 | 73.2 | 51.8 | 2.49 |
